Legend:
FKBP52 = molecular target: T1, FKBP52 (Homo sapiens, UniProt Q02790); assay: Fluorescence polarization (FP) assay, binding to the FK506-binding domain of FKBP52; details: FK506-binding domain of FKBP52 (FKBP52FK1), competition with fluorescent ligand 2b
T1 sequence (Q02790 50-138 limits assumed): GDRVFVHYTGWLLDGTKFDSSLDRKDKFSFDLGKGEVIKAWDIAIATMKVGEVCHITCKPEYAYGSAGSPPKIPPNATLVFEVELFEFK
Experimental: (§1) In the present invention, in vitro fluorescence polarization assays with the compounds of the general formula (I) were performed to determine the binding affinities to FKBP51 and FKBP52 or to the isolated FK506-binding domains of FKBP51 and FKBP52 ([…]). Binding to the isolated FK506-binding domains is reliably indicative of binding to the full length proteins. The affinities for the isolated FK506-binding domains and for full-length FKBP51 or FKBP52 are the same for all compounds tested so far (Kozany et al, ChemBioChem 2009, 10, 1402-1410).
(§2) Example 11: Fluorescence Polarization (FP) Assays
(§3) In-vitro fluorescence polarization assays were performed to determine the binding affinities for FKBP51 and 52 according to a literature procedure (Kozany, C.; Marz, A.; Kress, C.; Hausch, F., Fluorescent probes to characterise FK506-binding proteins. Chembiochem 2009, 10, (8), 1402-10).
(§4) For fluorescence polarization assays the fluorescent ligand 2b was dissolved in HEPES (20 mm, pH 8), Triton-X100 (0.01%), at double the concentration required for the final sample. The target protein was also diluted in this assay buffer at double the highest concentration required for the final sample. This protein stock was used for a 1:1 serial dilution.
(§5) The fluorescent ligand 2b was diluted in assay buffer to a concentration double the final concentration (20 nM 2b). The inventive compound was dissolved in DMSO to reach a 100-times concentrated stock solution. This was used for a 1:1 serial dilution in DMSO. Every sample of this serial dilution was diluted by a factor of 50 in assay buffer supplemented with ligand 2b to achieve a 2× concentrated mixture of ligand 2b and the inventive compound. To this competitive ligand double the protein concentration for 2b assay: FKBP51FK1 560 nM (2×280 nM) or FKBP52FK1 800 nM (2×400 nM) diluted in assay buffer was added.
(§6) The samples were transferred to black 384-well assay plates (No.: 3575; Corning Life Sciences). After incubation at room temperature for 30 min the fluorescence anisotropy was measured (GENios Pro, Tecan, Männedorf, Switzerland) by using an excitation filters of 485/20 nm and emission filters of 535/25 nm. The binding assays were performed in duplicates in the plate format.
(§7) The competition curves were analyzed by using SigmaPlot9. Data were fitted to a four parameter logistic curve to deduce the IC50 values. For the analysis of K1 values, data were fitted to the following equation (Z. X. Wang, FEBS Lett. 1995, 360, 111-114). A=(Amax−Amin)/[L]t×(([L]t×((2×((Klig+Kcomp+[L]t+[I]t−[R]t)^2−3×(Kcomp×([L]t−[R]t)+Klig×([I]t−[R]t)+[…]))^0.5×COS(ARCCOS((−2×(Klig+Kcomp+[L]t+[I]t−[R]t)^3+9×(Klig+Kcomp+[L]t+[I]t−[R]t)×(Kcomp×([L]t−[R]t)+Klig×([I]t−[R]t)+Klig×Kcomp)−27×(−1×Klig×Kcomp×[R]t))/(2×((((Klig+Kcomp+[L]t+[I]t−[R]t)^2−3×(Kcomp×([L]t−[R]t)+Klig×([I]t−[R]t)+Klig×Kcomp))^3)^0.5)))/3))−(Klig+Kcomp+[L]t+[I]t−[R]t)))/((3×Klig)+((2×((Klig+Kcomp+[L]t+[I]t−[R]t)^2−3×(Kcomp×([L]t−[R]t)+Klig×([I]t−[R]t)+Klig×Kcomp))^0.5×COS(ARCCOS((−2×(Klig+Kcomp+[L]t+[I]t−[R]t)^3+9×(Klig+Kcomp+[L]t+[I]t−[R]t)×(Kcomp×([L]t−[R]t)+Klig×([I]t−[R]t)+Klig×Kcomp)−27×(−1×Klig×Kcomp×[R]t))/(2×((((Klig+Kcomp+[L]t+[I]t−[R]t)^2−3×(Kcomp×([L]t−[R]t)+Klig×([I]t−[R]t)+Klig×Kcomp))^3)^0.5)))/3))−(Klig+Kcomp+[L]t+[I]t−[R]t)))+Amin
(§8) In this equation Klig and Kcomp stand for the Kd values of the used tracer or competing inhibitor, [I]t is referring to the total concentration of the titrated inhibitor.

FKBP51 = molecular target: T2, FKBP51 (Homo sapiens, UniProt Q13451); assay: Fluorescence polarization (FP) assay, binding to the FK506-binding domain of FKBP51; details: FK506-binding domain of FKBP51 (FKBP51FK1), competition with fluorescent ligand 2b
T2 sequence (Q13451 42-130 limits assumed): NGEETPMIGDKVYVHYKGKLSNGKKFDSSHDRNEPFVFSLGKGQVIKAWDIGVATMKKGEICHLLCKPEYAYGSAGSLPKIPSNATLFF
Experimental: as §1, §2, §3, §4, §5, §6, §7, §8

C=CC1CN(Cc2ccccn2)C(=O)C2CCCC1N2S(=O)(=O)c1ccc(OC)c(Cl)c1 (stereo in doubt) [Compound K10, (1S,5R,6R)-10-((3-chloro-4-methoxyphenyl)sulfonyl)-3-(pyridin-2-ylmethyl)-5-vinyl-3,10-diazabicyclo[4.3.1]decan-2-one]
Ki (FKBP52): 100 to 500 nM | Ki (FKBP51): 100 to 500 nM

C=CC1CN(Cc2ccccn2)C(=O)C2CCCC1N2S(=O)(=O)c1cccc(Cl)c1 (stereo in doubt) [Compound K11, (1S,5R,6R)-10-((3-chlorophenyl)sulfonyl)-3-(pyridin-2-ylmethyl)-5-vinyl-3,10-diazabicyclo[4.3.1]decan-2-one]
Ki (FKBP52): 100 to 500 nM | Ki (FKBP51): 100 to 500 nM

C=CC1CN(Cc2ccccn2)C(=O)C2CCCC1N2S(=O)(=O)c1ccc2c(c1)CCO2 (stereo in doubt) [Compound K12, (1S,5R,6R)-10-((2,3-dihydrobenzofuran-5-yl)sulfonyl)-3-(pyridin-2-ylmethyl)-5-vinyl-3,10-diazabicyclo[4.3.1]decan-2-one]
Ki (FKBP52): 500 to 1000 nM | Ki (FKBP51): 500 to 1000 nM

C=CC1CN(Cc2ccccn2)C(=O)C2CCCC1N2S(=O)(=O)c1ccccc1 (stereo in doubt) [Compound K13, (1S,5R,6R)-10-(phenylsulfonyl)-3-(pyridin-2-ylmethyl)-5-vinyl-3,10-diazabicyclo[4.3.1]decan-2-one]
Ki (FKBP52): 500 to 1000 nM | Ki (FKBP51): 500 to 1000 nM

C=CC1CN(Cc2ccccn2)C(=O)C2CCCC1N2S(=O)(=O)c1cccc(F)c1 (stereo in doubt) [Compound K15, (1S,5R,6R)-10-((3-fluorophenyl)sulfonyl)-3-(pyridin-2-ylmethyl)-5-vinyl-3,10-diazabicyclo[4.3.1]decan-2-one]
Ki (FKBP52): 100 to 500 nM | Ki (FKBP51): 100 to 500 nM

C=CC1CN(Cc2ccccn2)C(=O)C2CCCC1N2S(=O)(=O)c1cc(Br)cc(Br)c1 (stereo in doubt) [Compound K16, (1S,5R,6R)-10-((3,5-dibromophenyl)sulfonyl)-3-(pyridin-2-ylmethyl)-5-vinyl-3,10-diazabicyclo[4.3.1]decan-2-one]
Ki (FKBP52): ≤ 100 nM | Ki (FKBP51): ≤ 100 nM

C=CC1CN(Cc2ccccn2)C(=O)C2CCCC1N2S(=O)(=O)c1cccc(C(N)=O)c1 (stereo in doubt) [Compound K17, 3-(((1S,5R,6R)-2-oxo-3-(pyridin-2-ylmethyl)-5-vinyl-3,10-diazabicyclo[4.3.1]decan-10-yl)sulfonyl)benzamide]
Ki (FKBP52): 100 to 500 nM | Ki (FKBP51): 100 to 500 nM

C=CC1CN(Cc2ccccn2)C(=O)C2CCCC1N2S(=O)(=O)c1ccc(NC(C)=O)c(Br)c1 (stereo in doubt) [Compound K20, N-(2-bromo-4-(((1S,5R,6R)-2-oxo-3-(pyridin-2-ylmethyl)-5-vinyl-3,10-diazabicyclo[4.3.1]decan-10-yl)sulfonyl)phenyl)acetamide]
Ki (FKBP52): 100 to 500 nM | Ki (FKBP51): 100 to 500 nM

C=CC1CN(Cc2ccccn2)C(=O)C2CCCC1N2S(=O)(=O)c1ccc(NC(C)=O)c(Cl)c1 (stereo in doubt) [Compound K21, N-(2-chloro-4-(((1S,5R,6R)-2-oxo-3-(pyridin-2-ylmethyl)-5-vinyl-3,10-diazabicyclo[4.3.1]decan-10-yl)sulfonyl)phenyl)acetamide]
Ki (FKBP52): 100 to 500 nM | Ki (FKBP51): 100 to 500 nM

C=CC1CN(Cc2ccccn2)C(=O)C2CCCC1N2S(=O)(=O)c1cc(Br)cc(C(=O)OC)c1 (stereo in doubt) [Compound K24, methyl 3-bromo-5-(((1S,5R,6R)-2-oxo-3-(pyridin-2-ylmethyl)-5-vinyl-3,10-diazabicyclo[4.3.1]decan-10-yl)sulfonyl)benzoate]
Ki (FKBP52): ≤ 100 nM | Ki (FKBP51): ≤ 100 nM

C=CC1CN(Cc2ccccn2)C(=O)C2CCCC1N2S(=O)(=O)c1cccnc1 (stereo in doubt) [Compound K26, (1S,5R,6R)-3-(pyridin-2-ylmethyl)-10-(pyridin-3-ylsulfonyl)-5-vinyl-3,10-diazabicyclo[4.3.1]decan-2-one]
Ki (FKBP52): 100 to 500 nM | Ki (FKBP51): 100 to 500 nM

C=CC1CN(Cc2ccccn2)C(=O)C2CCCC1N2S(=O)(=O)c1ccc(-c2ncccn2)cc1 (stereo in doubt) [Compound K28, (1S,5R,6R)-3-(pyridin-2-ylmethyl)-10-((4-(pyrimidin-2-yl)phenyl)sulfonyl)-5-vinyl-3,10-diazabicyclo[4.3.1]decan-2-one]
Ki (FKBP52): ≤ 100 nM | Ki (FKBP51): ≤ 100 nM

C=CC1CN(Cc2ccccn2)C(=O)C2CCCC1N2S(=O)(=O)c1nc2ccccc2[nH]1 (stereo in doubt) [Compound K29, (1S,5R,6R)-10-((1H-benzo[d]imidazol-2-yl)sulfonyl)-3-(pyridin-2-ylmethyl)-5-vinyl-3,10-diazabicyclo[4.3.1]decan-2-one]
Ki (FKBP52): ≤ 100 nM | Ki (FKBP51): ≤ 100 nM

CCC1CN(Cc2ccccn2)C(=O)C2CCCC1N2S(=O)(=O)c1cc(Cl)cc(Cl)c1 (stereo in doubt) [Compound M1, (1S,5R,6R)-10-((3,5-dichlorophenyl)sulfonyl)-5-ethyl-3-(pyridin-2-ylmethyl)-3,10-diazabicyclo[4.3.1]decan-2-one]
Ki (FKBP52): ≤ 100 nM | Ki (FKBP51): ≤ 100 nM

COCC1CN(Cc2ccccn2)C(=O)C2CCCC1N2S(=O)(=O)c1cc(Cl)cc(Cl)c1 (stereo in doubt) [Compound M5, (1S,5R,6R)-10-((3,5-dichlorophenyl)sulfonyl)-5-(methoxymethyl)-3-(pyridin-2-ylmethyl)-3,10-diazabicyclo[4.3.1]decan-2-one]
Ki (FKBP52): ≤ 100 nM | Ki (FKBP51): ≤ 100 nM

COCC1CN(Cc2cnnn2-c2ccccc2)C(=O)C2CCCC1N2S(=O)(=O)c1cccc(F)c1 (stereo in doubt) [Compound N29, (1S,5R,6R)-10-((3-fluorophenyl)sulfonyl)-5-(methoxymethyl)-3-((1-phenyl-1H-1,2,3-triazol-5-yl)methyl)-3,10-diazabicyclo[4.3.1]decan-2-one]
Ki (FKBP52): 100 to 500 nM | Ki (FKBP51): 100 to 500 nM

COc1ccc(OCCN2C[C@H]([C@H](O)CO)C3CCCC(C2=O)N3S(=O)(=O)c2cc(Cl)cc(Cl)c2)cc1OC (stereo partly drawn) [C2(C2a/b), (1S,5S,6R)-10-((3,5-dichlorophenyl)sulfonyl)-5-(1,2-dihydroxyethyl)-3-(2-(3,4-dimethoxyphenoxy)ethyl)-3, 10-diazabicyclo[4.3.1]decan-2-one]
Ki (FKBP52): ≤ 100 nM | Ki (FKBP51): ≤ 100 nM

COCCN1C[C@H](C(C)(C)O)[C@H]2CCC[C@@H](C1=O)N2S(=O)(=O)c1cc(Cl)cc(Cl)c1 [Compound B3, (1S,5S,6R)-10-((3,5-dichlorophenyl)sulfonyl)-5-(2-hydroxypropan-2-yl)-3-(2-methoxyethyl)-3,10-diazabicyclo[4.3.1]decan-2-one]
Ki (FKBP52): ≤ 100 nM | Ki (FKBP51): ≤ 100 nM

COCCN1C[C@H]([C@H](C)O)[C@H]2CCC[C@@H](C1=O)N2S(=O)(=O)c1cc(Cl)cc(Cl)c1 [Compound B7, (1S,5S,6R)-10-((3,5-dichlorophenyl)sulfonyl)-5-((S)-1-hydroxyethyl)-3-(2-methoxyethyl)-3,10-diazabicyclo[4.3.1]decan-2-one]
Ki (FKBP52): ≤ 100 nM | Ki (FKBP51): ≤ 100 nM
